Measurements reported in US20210308089A1, “METHODS OF TREATING AND/OR PREVENTING VIRAL INFECTIONS AND/OR DISEASES CAUSED BY VIRUSES IN A SUBJECT IN NEED THEREOF” (priority 2020, published 2021).

System: patients of the REDUCE-IT and earlier EPA placebo-controlled trials
Experiment: Example 3: adverse events by risk ratio, icosapent ethyl vs placebo (candidate categories; infectious disease terms of interest)
Details: for NNT / Risk Ratio (95% CI) / ARR: ISS
[1] = Frequent Bowel Movements, Any Severity
[2] = Frequent Bowel Movements, Mild Severity
[3] = Frequent Bowel Movements, Related
[4] = Huntington's Chorea, Any Severity
[5] = Huntington's Chorea, Mild Severity
[6] = ITT, AMR101 N = 4089, placebo 8 of 4090
[7] = ITT, AMR101 N = 4089, placebo 10 of 4090
[8] = ITT, AMR101 N = 4089, placebo 22 of 4090

CC/C=C\C/C=C\C/C=C\C/C=C\C/C=C\CCCC(=O)OCC [icosapent ethyl, eicosapentaenoic acid ethyl ester]
NNT (Flatulence, Mild Severity): 129
Risk Ratio (95% CI) (Flatulence, Mild Severity): 0.424 (0.125 to 1.440) 3
ARR (Flatulence, Related): −0.8%
NNT (Flatulence, Related): 121
Risk Ratio (95% CI) (Flatulence, Related): 0.463 (0.152 to 1.408) 3
ARR [1]: −0.6%
NNT [1]: 173
Risk Ratio (95% CI) (Frequent Bowel Movements, Any Severity, case counts given): [0 drug vs 3 PBO]
ARR [2]: −0.4%
NNT [2]: 259
Risk Ratio (95% CI) (Frequent Bowel Movements, Mild Severity, case counts given): [0 drug vs 2 PBO]
ARR [3]: −0.6%
NNT [3]: 173
Risk Ratio (95% CI) (Frequent Bowel Movements, Related, case counts given): [0 drug vs 3 PBO]
ARR (Hot Flush): −0.3%
NNT (Hot Flush): 292
Risk Ratio (95% CI) (Hot Flush): 0.556 (0.125 to 2.474) 3
ARR [4]: −1.3%
NNT [4]: 77
Risk Ratio (95% CI) [4]: 0.247 (0.067 to 0.908) 4
ARR [5]: −0.9%
NNT [5]: 109
Risk Ratio (95% CI) [5]: 0.318 (0.083 to 1.223)4
ARR (Menorrhagia): −0.6%
NNT (Menorrhagia): 159
Risk Ratio (95% CI) (Menorrhagia): 0.185 (0.021 to 1.653) 5
ARR (Muscle spasms, Related): −0.0%
NNT (Muscle spasms, Related): 2007
Risk Ratio (95% CI) (Muscle spasms, Related): 0.741 (0.046 to 11.826) 2
ARR (Nasopharyngitis, Any Severity): −2.3%
NNT (Nasopharyngitis, Any Severity): 43
Risk Ratio (95% CI) (Nasopharyngitis, Any Severity): 0.588 (0.344 to 1.004) 3
ARR (Nasopharyngitis, Mild Severity): −2.3%
NNT (Nasopharyngitis, Mild Severity): 43
Risk Ratio (95% CI) (Nasopharyngitis, Mild Severity): 0.494 (0.265 to 0.921) 3
ARR (Weight loss, Related): −0.4%
NNT (Weight loss, Related): 230
Risk Ratio (95% CI) (Weight loss, Related): 0.247 (0.026 to 2.369) 4
Bronchiectasis TEAE: % of subjects (ITT, AMR101 N = 4089, placebo 0.1, Fisher's Exact p 0.5076): (0.1) %
Hepatosplenomegaly TEAE: % of subjects (ITT, AMR101 N = 4089, placebo 0.1, Fisher's Exact p 0.6249): (0.0) %
Allergic sinusitis TEAE: % of subjects (ITT, AMR101 N = 4089, placebo 0.1, Fisher's Exact p 0.6874): (0.0) %
Mucosal inflammation TEAE: % of subjects (ITT, AMR101 N = 4089, placebo 0.1, Fisher's Exact p 0.7264): (0.1) %
Systemic inflammatory response syndrome TEAE: % of subjects (ITT, AMR101 N = 4089, placebo 0.2, Fisher's Exact p 0.1092): (0.0) %
Splenomegaly TEAE: % of subjects (ITT, AMR101 N = 4089, placebo 0.2, Fisher's Exact p 0.1792): (0.1) %
Neutropenia TEAE: % of subjects (ITT, AMR101 N = 4089, placebo 0.2, Fisher's Exact p 0.2262): (0.1) %
Gingivitis TEAE: % of subjects (ITT, AMR101 N = 4089, placebo 0.2, Fisher's Exact p 0.3013): (0.1) %
Orthopnea TEAE: % of subjects (ITT, AMR101 N = 4089, placebo 0.2, Fisher's Exact p 0.3873): (0.1) %
Helicobacter infection TEAE: % of subjects (ITT, AMR101 N = 4089, placebo 0.2, Fisher's Exact p 0.4235): (0.1) %
Herpes simplex TEAE: % of subjects (ITT, AMR101 N = 4089, placebo 0.2, Fisher's Exact p 0.5807): (0.1) %
Vulvovaginal mycotic infection TEAE: % of subjects (ITT, AMR101 N = 4089, placebo 0.3, Fisher's Exact p 0.2097): (0.1) %
Bronchitis chronic TEAE: % of subjects (ITT, AMR101 N = 4089, placebo 0.3, Fisher's Exact p 0.5029): (0.2) %
Hepatobiliary disorders (SOC) TEAE: % of subjects (ITT, AMR101 N = 4089, placebo 0.5, Fisher's Exact p 0.0037): (0.1) %
Hepatomegaly TEAE: % of subjects (ITT, AMR101 N = 4089, placebo 0.5, Fisher's Exact p 0.0065): (0.1) %
Atelectasis TEAE: % of subjects (ITT, AMR101 N = 4089, placebo 0.5, Fisher's Exact p 0.0795): (0.3) %
Emphysema TEAE: % of subjects (ITT, AMR101 N = 4089, placebo 0.5, Fisher's Exact p 0.2144): (0.3) %
Rhinitis TEAE: % of subjects (ITT, AMR101 N = 4089, placebo 0.5, Fisher's Exact p 0.4166): (0.4) %
Tooth infection TEAE: % of subjects (ITT, AMR101 N = 4089, placebo 0.7, Fisher's Exact p 0.2514): (0.5) %
Influenza like illness TEAE: % of subjects (ITT, AMR101 N = 4089, placebo 0.7, Fisher's Exact p 0.6709): (0.6) %
Thrombocytopenia TEAE: % of subjects (ITT, AMR101 N = 4089, placebo 0.8, Fisher's Exact p 0.3393): (0.6) %
Wheezing TEAE: % of subjects (ITT, AMR101 N = 4089, placebo 0.9, Fisher's Exact p 0.1162): (0.6) %
General disorders and administration site conditions (SOC) TEAE: % of subjects (ITT, AMR101 N = 4089, placebo 1.0, Fisher's Exact p 0.1800): (0.7) %
Sepsis TEAE: % of subjects (ITT, AMR101 N = 4089, placebo 1.0, Fisher's Exact p 0.3535): (0.8) %
Blood and lymphatic system disorders (SOC) TEAE: % of subjects (ITT, AMR101 N = 4089, placebo 1.2, Fisher's Exact p 0.0279): (0.7) %
Hepatosplenomegaly TEAE: number of subjects (ITT, AMR101 N = 4089, placebo 3 of 4090): 1
Allergic sinusitis TEAE: number of subjects (ITT, AMR101 N = 4089, placebo 4 of 4090): 2
Mucosal inflammation TEAE: number of subjects (ITT, AMR101 N = 4089, placebo 5 of 4090): 3
Cough TEAE: % of subjects (ITT, AMR101 N = 4089, placebo 5.9, Fisher's Exact p 1.0000): (5.9) %
Bronchiectasis TEAE: number of subjects (ITT, AMR101 N = 4089, placebo 6 of 4090): 3
Influenza TEAE: % of subjects (ITT, AMR101 N = 4089, placebo 6.6, Fisher's Exact p 0.7541): (6.4) %
Pneumonia TEAE: % of subjects (ITT, AMR101 N = 4089, placebo 6.8, Fisher's Exact p 0.5627): (6.4) %
Respiratory, thoracic and mediastinal disorders (SOC) TEAE: % of subjects (ITT, AMR101 N = 4089, placebo 7.8, Fisher's Exact p 0.2050): (7.0) %
Herpes simplex TEAE: number of subjects [6]: 5
Neutropenia TEAE: number of subjects [6]: 3
Orthopnea TEAE: number of subjects [6]: 4
Systemic inflammatory response syndrome TEAE: number of subjects [6]: 2
Helicobacter infection TEAE: number of subjects (ITT, AMR101 N = 4089, placebo 9 of 4090): 5
Gingivitis TEAE: number of subjects [7]: 5
Splenomegaly TEAE: number of subjects [7]: 4
Vulvovaginal mycotic infection TEAE: number of subjects (ITT, AMR101 N = 4089, placebo 11 of 4090): 5
Bronchitis chronic TEAE: number of subjects (ITT, AMR101 N = 4089, placebo 12 of 4090): 8
Infections and infestations (SOC) TEAE: % of subjects (ITT, AMR101 N = 4089, placebo 14.6, Fisher's Exact p 0.2676): (13.8) %
Hepatomegaly TEAE: number of subjects (ITT, AMR101 N = 4089, placebo 19 of 4090): 5
Emphysema TEAE: number of subjects (ITT, AMR101 N = 4089, placebo 20 of 4090): 12
Subjects with at least one Infectious Disease TEAE of Interest: % of subjects (ITT, AMR101 N = 4089, placebo 21.6, Fisher's Exact p 0.0562): (19.9) %
Atelectasis TEAE: number of subjects [8]: 11
Hepatobiliary disorders (SOC) TEAE: number of subjects [8]: 6
Rhinitis TEAE: number of subjects [8]: 16
Influenza like illness TEAE: number of subjects (ITT, AMR101 N = 4089, placebo 27 of 4090): 23
Tooth infection TEAE: number of subjects (ITT, AMR101 N = 4089, placebo 29 of 4090): 20
Thrombocytopenia TEAE: number of subjects (ITT, AMR101 N = 4089, placebo 31 of 4090): 23
Wheezing TEAE: number of subjects (ITT, AMR101 N = 4089, placebo 36 of 4090): 23
General disorders and administration site conditions (SOC) TEAE: number of subjects (ITT, AMR101 N = 4089, placebo 40 of 4090): 28
Sepsis TEAE: number of subjects (ITT, AMR101 N = 4089, placebo 42 of 4090): 33
Blood and lymphatic system disorders (SOC) TEAE: number of subjects (ITT, AMR101 N = 4089, placebo 48 of 4090): 28
Subjects with at least one Infectious Disease Events of Interest (TEAE terms and labs): % of subjects (ITT, AMR101 N = 4089, placebo 86.8, Fisher's Exact p <.0001): (83.0) %
Cough TEAE: number of subjects (ITT, AMR101 N = 4089, placebo 241 of 4090): 241
Influenza TEAE: number of subjects (ITT, AMR101 N = 4089, placebo 271 of 4090): 263
Pneumonia TEAE: number of subjects (ITT, AMR101 N = 4089, placebo 277 of 4090): 263
Respiratory, thoracic and mediastinal disorders (SOC) TEAE: number of subjects (ITT, AMR101 N = 4089, placebo 318 of 4090): 287
Infections and infestations (SOC) TEAE: number of subjects (ITT, AMR101 N = 4089, placebo 599 of 4090): 563
Subjects with at least one Infectious Disease TEAE of Interest: number of subjects (ITT, AMR101 N = 4089, placebo 883 of 4090): 812
Subjects with at least one Infectious Disease Events of Interest (TEAE terms and labs): number of subjects (ITT, AMR101 N = 4089, placebo 3549 of 4090): 3394
AR: ADHD (AE table) (R-I): 0.0%
AR: Allergic sinusitis (AE table) (R-I): 0.1%
AR: Alzheimer's Disease (AE table) (R-I): 0.1%
AR: Asthma (AE table) (R-I): 1.3%
AR: Atelectasis (AE table) (R-I): 0.4%
